According to article PMC8807399, “Synthesis, Characterization, and in vivo Evaluation of a Novel Potent Autotaxin-Inhibitor” (Frontiers in Pharmacology, 2022):

Tests used:
[1] = Lipophilicity (LogD, octanol/buffer); format: physicochemical; details: 1-octanol / 25 mM phosphate buffer; pH 7.4, octanol/25 mM phosphate buffer
Description: The experiment started with the accurate coating of the hydrophobic layer (0.45 µm PVDF membranes), which was fixed on the bottom of each DIFI©-tube (Weidmann Medical Technology AG, Rapperswil, Switzerland). The coated membranes were then connected to a 96-well plate which has been prefilled with exactly 150 µl of the selected aqueous buffer solution (25 mM phosphate buffer, pH 7.4). The buffer solution contains already the compound of interest with a maximum starting concentration of 85 µM. To expand the measurement range down to logD = −0.5 and up to logD = +4, it is necessary to carry out the procedure at two different octanol/water ratios: One with an excess of octanol for hydrophilic compounds (logD < 1) and one with a low volume of octanol for the lipophilic compounds (logD > 1). Therefore, parts of the DIFI©-tubes were filled with 15 µl 1-octanol and another part with 1 µl 1-octanol. The resulting sandwich guarantees that the membrane was completely dipped in the buffer solution. The plate was then sealed and shaken for 12 h at room temperature (23°C). During this time, the substance is distributed between the layer, the octanol, and the buffer solution. After having reached a distribution equilibrium, the DIFI©-tubes were easily disassembled from the top of the 96-well plate, so that the remaining sample concentration in the aqueous phase could be analyzed by LC/MS.

Single dose PK in rats = format: in vivo; details: rat
Description: Exposures in animals treated with ATX-inhibitors were determined from K2EDTA treated plasma by LC-MS/MS at different time points. 25 µL of plasma was used for a single concentration determination. Concentration/time profiles were analyzed with MS Excel (Microsoft Corporation, Redmond, WA, United States).
For PK experiments for 7, 13, 14, and 15, respectively, animals were treated either iv or po and exposures were determined at different time points after compound administration. Suitable formulations for 13 were, for example, NMP:Tris buffer pH 8.5 (30%/70%) for iv administration with a nominal drug concentration of 1 mg/ml (dose 2 mg/kg) and a suspension in NMP:gelatine/NaCl (10%/90%) for po administration with a nominal drug concentration of 2.5 mg/ml (dose 10 mg/kg). PK parameters in Table 2 were estimated from the concentration time profiles using Phoenix WinNonlin software (Certara, Princeton, NJ, United States).

5HT2a = target: T1, 5HT2a (Homo sapiens, UniProt P28223); experiment: Off-target screen 5HT2a; format: binding; details: 10 µM; single point, duplicates
T1 construct: purchased Eurofins CEREP SA
T1 sequence (P28223 whole entry): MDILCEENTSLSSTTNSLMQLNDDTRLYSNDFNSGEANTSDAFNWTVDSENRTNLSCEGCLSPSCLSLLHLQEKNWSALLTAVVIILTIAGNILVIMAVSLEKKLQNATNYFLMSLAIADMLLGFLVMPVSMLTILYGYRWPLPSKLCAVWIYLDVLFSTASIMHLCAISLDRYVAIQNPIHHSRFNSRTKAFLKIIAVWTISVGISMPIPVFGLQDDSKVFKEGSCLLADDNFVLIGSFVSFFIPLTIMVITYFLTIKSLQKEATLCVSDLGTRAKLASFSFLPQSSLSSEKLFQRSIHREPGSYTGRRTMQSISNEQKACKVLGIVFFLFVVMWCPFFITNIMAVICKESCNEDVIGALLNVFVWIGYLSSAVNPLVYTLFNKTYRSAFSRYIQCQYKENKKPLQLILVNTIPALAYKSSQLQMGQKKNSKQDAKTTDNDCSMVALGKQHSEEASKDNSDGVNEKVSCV

[2] = target: T2, Angiotensin II receptor 1 (Homo sapiens, UniProt P30556); experiment: Off-target screen Angiotensin II receptor 1; format: binding; details: 10 µM; single point, duplicates
T2 construct: purchased Eurofins CEREP SA
T2 sequence (P30556 whole entry): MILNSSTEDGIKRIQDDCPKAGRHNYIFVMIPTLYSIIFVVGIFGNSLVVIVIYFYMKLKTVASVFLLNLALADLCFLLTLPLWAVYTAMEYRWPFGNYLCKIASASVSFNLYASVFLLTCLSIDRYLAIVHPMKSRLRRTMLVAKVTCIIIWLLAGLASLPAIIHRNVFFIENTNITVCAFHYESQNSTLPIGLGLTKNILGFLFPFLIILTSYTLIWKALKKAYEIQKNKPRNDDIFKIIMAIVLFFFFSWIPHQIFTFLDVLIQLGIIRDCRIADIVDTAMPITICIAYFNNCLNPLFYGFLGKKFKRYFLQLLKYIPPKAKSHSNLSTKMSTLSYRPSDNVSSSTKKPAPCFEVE

Glucocorticoid receptor = target: T3, Glucocorticoid receptor (Homo sapiens, UniProt P04150); experiment: Off-target screen Glucocorticoid receptor; format: binding; details: 10 µM; single point, duplicates
T3 construct: purchased Eurofins CEREP SA
T3 sequence (P04150 whole entry): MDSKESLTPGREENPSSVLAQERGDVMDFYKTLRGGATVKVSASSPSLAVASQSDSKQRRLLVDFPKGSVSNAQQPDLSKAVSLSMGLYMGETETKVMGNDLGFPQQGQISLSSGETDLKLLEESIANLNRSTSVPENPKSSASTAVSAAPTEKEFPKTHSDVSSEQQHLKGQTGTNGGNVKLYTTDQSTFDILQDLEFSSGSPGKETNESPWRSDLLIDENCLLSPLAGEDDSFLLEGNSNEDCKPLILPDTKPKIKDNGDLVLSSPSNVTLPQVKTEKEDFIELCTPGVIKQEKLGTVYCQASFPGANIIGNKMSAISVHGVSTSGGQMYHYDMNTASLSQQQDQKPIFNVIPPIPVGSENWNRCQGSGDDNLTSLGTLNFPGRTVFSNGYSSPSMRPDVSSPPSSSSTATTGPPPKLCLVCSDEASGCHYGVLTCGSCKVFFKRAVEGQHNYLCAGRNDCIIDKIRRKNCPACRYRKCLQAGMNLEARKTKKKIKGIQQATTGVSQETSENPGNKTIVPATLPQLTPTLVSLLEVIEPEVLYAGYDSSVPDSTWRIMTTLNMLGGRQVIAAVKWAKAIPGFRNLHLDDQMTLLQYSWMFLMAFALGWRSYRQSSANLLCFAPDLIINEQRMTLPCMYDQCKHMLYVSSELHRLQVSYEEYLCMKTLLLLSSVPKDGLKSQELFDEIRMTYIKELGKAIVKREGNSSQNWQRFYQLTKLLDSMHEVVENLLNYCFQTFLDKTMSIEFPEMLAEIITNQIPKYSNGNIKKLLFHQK

LPA2 receptor = target: T4, LPA2 receptor (Homo sapiens, UniProt Q9HBW0); experiment: Off-target screen LPA2 receptor, antagonist mode; format: cell-based; details: 10 µM, single point, duplicates
T4 construct: purchased Eurofins CEREP SA
T4 sequence (Q9HBW0 whole entry): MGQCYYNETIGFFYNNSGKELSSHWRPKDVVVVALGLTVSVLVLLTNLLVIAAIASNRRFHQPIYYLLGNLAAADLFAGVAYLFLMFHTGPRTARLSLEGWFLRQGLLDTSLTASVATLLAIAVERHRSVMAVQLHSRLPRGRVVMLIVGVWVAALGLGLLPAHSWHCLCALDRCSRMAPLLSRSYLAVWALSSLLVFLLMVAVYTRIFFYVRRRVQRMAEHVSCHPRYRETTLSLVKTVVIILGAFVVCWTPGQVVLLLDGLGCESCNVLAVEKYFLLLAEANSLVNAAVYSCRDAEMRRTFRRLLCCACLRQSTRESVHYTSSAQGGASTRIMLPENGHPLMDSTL

MAO-B = target: T5, MAO-B (Homo sapiens, UniProt P27338); experiment: Off-target screen MAO-B; format: biochemical; details: 10 µM; single point, duplicates
T5 construct: purchased Eurofins CEREP SA
T5 sequence (P27338 whole entry): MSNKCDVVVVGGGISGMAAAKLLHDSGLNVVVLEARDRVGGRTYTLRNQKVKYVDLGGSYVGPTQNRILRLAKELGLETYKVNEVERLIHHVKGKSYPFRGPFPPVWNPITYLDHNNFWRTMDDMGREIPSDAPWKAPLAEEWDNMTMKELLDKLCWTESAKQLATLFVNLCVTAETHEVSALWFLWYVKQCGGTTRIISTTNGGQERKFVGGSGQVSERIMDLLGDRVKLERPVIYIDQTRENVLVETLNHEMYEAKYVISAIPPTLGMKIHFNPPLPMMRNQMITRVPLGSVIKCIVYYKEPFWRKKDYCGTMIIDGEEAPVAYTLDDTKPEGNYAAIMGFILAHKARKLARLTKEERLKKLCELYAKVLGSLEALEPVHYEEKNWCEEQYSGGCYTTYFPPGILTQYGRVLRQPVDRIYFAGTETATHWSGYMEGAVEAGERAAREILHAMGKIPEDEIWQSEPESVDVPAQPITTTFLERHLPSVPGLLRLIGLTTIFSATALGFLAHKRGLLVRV

PDE-5 = target: T6, PDE-5 (Homo sapiens, UniProt O76074); experiment: Off-target screen PDE-5; format: biochemical; details: 10 µM; single point, duplicates
T6 construct: purchased Eurofins CEREP SA

S1P1 = target: T7, S1P1 (Homo sapiens, UniProt P21453); experiment: Off-target screen S1P1, antagonist mode; format: cell-based; details: 10 µM, single point, duplicates
T7 construct: purchased Eurofins CEREP SA
T7 sequence (P21453 whole entry): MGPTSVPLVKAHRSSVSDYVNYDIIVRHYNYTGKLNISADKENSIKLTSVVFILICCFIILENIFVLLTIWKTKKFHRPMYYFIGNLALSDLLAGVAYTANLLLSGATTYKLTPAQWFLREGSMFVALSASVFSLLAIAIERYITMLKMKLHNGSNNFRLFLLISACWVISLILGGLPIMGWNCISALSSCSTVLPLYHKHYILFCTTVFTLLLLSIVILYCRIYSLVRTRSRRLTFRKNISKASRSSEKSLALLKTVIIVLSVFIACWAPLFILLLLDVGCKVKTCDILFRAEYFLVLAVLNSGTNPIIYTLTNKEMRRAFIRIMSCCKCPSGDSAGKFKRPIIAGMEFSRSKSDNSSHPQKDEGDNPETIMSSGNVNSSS

S1P3 = target: T8, S1P3 (Homo sapiens, UniProt Q99500); experiment: Off-target screen S1P3, antagonist mode; format: cell-based; details: 10 µM, single point, duplicates
T8 construct: purchased Eurofins CEREP SA
T8 sequence (Q99500 whole entry): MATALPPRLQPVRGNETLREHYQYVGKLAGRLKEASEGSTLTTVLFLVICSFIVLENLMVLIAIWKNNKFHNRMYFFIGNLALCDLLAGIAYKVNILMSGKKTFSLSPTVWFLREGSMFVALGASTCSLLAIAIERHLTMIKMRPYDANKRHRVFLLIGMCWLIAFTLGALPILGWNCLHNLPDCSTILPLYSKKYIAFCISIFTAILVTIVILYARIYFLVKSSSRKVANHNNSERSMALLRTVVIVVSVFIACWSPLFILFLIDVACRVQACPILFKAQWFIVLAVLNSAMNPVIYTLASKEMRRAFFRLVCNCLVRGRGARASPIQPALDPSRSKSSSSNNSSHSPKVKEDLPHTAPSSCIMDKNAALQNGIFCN

Serotonin transporter = target: T9, Serotonin transporter (Homo sapiens, UniProt P31645); experiment: Off-target screen Serotonin transporter; format: binding; details: 10 µM; single point, duplicates
T9 construct: purchased Eurofins CEREP SA
T9 sequence (P31645 whole entry): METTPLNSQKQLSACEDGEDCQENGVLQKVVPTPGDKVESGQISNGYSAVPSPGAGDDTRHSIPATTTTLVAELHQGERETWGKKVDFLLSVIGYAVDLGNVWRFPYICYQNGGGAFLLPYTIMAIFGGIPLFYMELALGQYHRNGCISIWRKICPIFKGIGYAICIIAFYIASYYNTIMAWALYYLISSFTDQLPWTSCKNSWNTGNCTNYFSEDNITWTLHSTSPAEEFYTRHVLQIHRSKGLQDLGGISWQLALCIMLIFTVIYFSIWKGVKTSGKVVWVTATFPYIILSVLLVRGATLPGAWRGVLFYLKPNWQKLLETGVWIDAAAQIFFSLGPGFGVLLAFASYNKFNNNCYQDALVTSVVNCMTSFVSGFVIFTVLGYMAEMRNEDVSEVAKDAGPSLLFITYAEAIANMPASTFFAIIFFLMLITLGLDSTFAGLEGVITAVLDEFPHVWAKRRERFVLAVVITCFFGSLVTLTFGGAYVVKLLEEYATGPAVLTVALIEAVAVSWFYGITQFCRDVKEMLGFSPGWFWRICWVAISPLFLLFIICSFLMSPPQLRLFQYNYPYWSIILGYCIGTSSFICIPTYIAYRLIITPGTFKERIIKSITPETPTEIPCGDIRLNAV

ZAP70 = target: T10, ZAP70 (Homo sapiens, UniProt P43403); experiment: Off-target screen ZAP70; format: biochemical; details: 10 µM; single point, duplicates
T10 construct: purchased Eurofins CEREP SA
T10 sequence (P43403 whole entry): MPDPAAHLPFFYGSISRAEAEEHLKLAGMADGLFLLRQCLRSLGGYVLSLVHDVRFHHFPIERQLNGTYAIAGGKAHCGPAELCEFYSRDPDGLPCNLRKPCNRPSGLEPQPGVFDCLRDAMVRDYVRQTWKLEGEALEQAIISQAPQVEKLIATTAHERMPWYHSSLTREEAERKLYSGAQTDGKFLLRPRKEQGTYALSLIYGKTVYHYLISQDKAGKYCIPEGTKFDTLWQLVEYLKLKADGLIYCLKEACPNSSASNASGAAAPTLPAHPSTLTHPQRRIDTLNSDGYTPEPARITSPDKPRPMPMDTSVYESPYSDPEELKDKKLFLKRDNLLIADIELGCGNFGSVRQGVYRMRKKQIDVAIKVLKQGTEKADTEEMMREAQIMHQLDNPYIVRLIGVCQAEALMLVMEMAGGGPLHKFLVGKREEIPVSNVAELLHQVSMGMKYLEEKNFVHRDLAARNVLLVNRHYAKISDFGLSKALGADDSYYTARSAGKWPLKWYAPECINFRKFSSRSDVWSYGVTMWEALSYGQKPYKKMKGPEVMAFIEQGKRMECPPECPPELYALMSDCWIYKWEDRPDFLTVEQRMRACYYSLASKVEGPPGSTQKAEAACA

[3] = plasma, po, 20 mg/kg/day, food admix (FA), 20 mg/kg per day

O=C(OCc1ccc(OC(F)(F)F)cc1)N1C[C@@H]2CN(C(=O)c3ccc4[nH]nnc4c3)C[C@H]2C1 [Compound 13, (3aS,6aS)-5-(1H-Benzotriazole-5-carbonyl)-hexahydro-pyrrolo[3,4-c]pyrrole-2-carboxylic acid 4-trifluoromethoxy-benzyl ester]
logD at 12 h [1]: 3.2 | AUC(0-inf) (Single dose PK in rats; [3]): 260 µg·h/mL | Cmax (Single dose PK in rats; [3]): 2980 ng/mL | Tmax (Single dose PK in rats; [3]): 17 h | half-life (Single dose PK in rats; [3]): 780 min | AUC(0-inf) (Single dose PK in rats; plasma, iv bolus, 2 mg/kg): 21 µg·h/mL | half-life (Single dose PK in rats; plasma, iv bolus, 2 mg/kg): 156 min | clearance (Single dose PK in rats; plasma, iv bolus, 2 mg/kg, read-out: CLp): 1.6 mL/min/kg | Vd (Single dose PK in rats; plasma, iv bolus, 2 mg/kg, read-out: Vdss): 0.3 L/kg | AUC(0-inf) (Single dose PK in rats; plasma, oral gavage, 10 mg/kg): 130 µg·h/mL | Cmax (Single dose PK in rats; plasma, oral gavage, 10 mg/kg): 17700 ng/mL | Tmax (Single dose PK in rats; plasma, oral gavage, 10 mg/kg): 0.75 h | half-life (Single dose PK in rats; plasma, oral gavage, 10 mg/kg): 276 min | Oral F (Single dose PK in rats; food admix (FA), 20 mg/kg per day): 80% | Oral F (Single dose PK in rats; oral gavage, 10 mg/kg): 80% | 5HT2a (h) [% inhib] (5HT2a): 39 % inhib | Angiotensin II receptor 1 (h) [% inhib] [2]: 14 % inhib | Glucocorticoid receptor (h) [% inhib] (Glucocorticoid receptor): 6 % inhib | LPA2 receptor (h), antago. mode [% inhib] (LPA2 receptor): 49 % inhib | MAO-B (h) [% inhib] (MAO-B): 6 % inhib | PDE-5 (h) [% inhib] (PDE-5): 19 % inhib | S1P1 (h), antago. mode [% inhib] (S1P1): 8 % inhib | S1P3 (h), antago. mode [% inhib] (S1P3): 47 % inhib | Serotonin transporter (h) [% inhib] (Serotonin transporter): 28 % inhib | ZAP70 (h) [% inhib] (ZAP70): 9 % inhib
